Assay results taken from ChEMBL document CHEMBL3407359, “(3Z)-3-(2-[4-(aryl)-1,3-thiazol-2-yl]hydrazin-1-ylidene)-2,3-dihydro-1H-indol-2-one derivatives as dual inhibitors of HIV-1 reverse transcriptase” (Eur J Med Chem, 2015).

Tests used:
[1] = molecular target: T1, Human immunodeficiency virus type 1 reverse transcriptase (Human immunodeficiency virus 1, UniProt Q72547); test: Inhibition of HIV1 reverse transcriptase-associated DNA polymerase-independent RNase H activity after 1 hr
[2] = molecular target: T1, Human immunodeficiency virus type 1 reverse transcriptase; test: Inhibition of HIV1 reverse transcriptase-associated RNA-dependent DNA polymerase activity after 30 mins
[3] = molecular target: Human immunodeficiency virus type 1 reverse transcriptase (Human immunodeficiency virus 1) (UniProt Q72547); test: Specificity index, ratio of IC50 for HIV1 reverse transcriptase-associated DNA polymerase-independent RNase H activity to IC50 for HIV1 reverse transcriptase-associated RNA-dependent DNA polymerase activity
[4] = Metal chelating activity of the compound assessed as magnesium ion complex formation by UV-vis spectrometric analysis; type: physicochemical
[5] = molecular target: T2, Human immunodeficiency virus type 1 reverse transcriptase (Human immunodeficiency virus 1, UniProt Q72547, Y181C)
Description: Inhibition of HIV1 reverse transcriptase Tyr181Cys mutant-associated DNA polymerase-independent RNase H activity after 1 hr

[6] = molecular target: T2, Human immunodeficiency virus type 1 reverse transcriptase; remark: listed apart in the source
Description: Inhibition of HIV1 reverse transcriptase Tyr181Cys mutant-associated RNA-dependent DNA polymerase activity after 30 mins

[7] = molecular target: T3, Human immunodeficiency virus type 1 reverse transcriptase (Human immunodeficiency virus 1, UniProt Q72547, K103N)
Description: Inhibition of HIV1 reverse transcriptase Lys103Asn mutant-associated DNA polymerase-independent RNase H activity after 1 hr

[8] = molecular target: T3, Human immunodeficiency virus type 1 reverse transcriptase; remark: listed apart in the source
Description: Inhibition of HIV1 reverse transcriptase Lys103Asn mutant-associated RNA-dependent DNA polymerase activity after 30 mins

SMILES | IC50 [1] [µM] | IC50 [2] [µM] | Ratio IC50 [3] | Activity [4] | IC50 [5] [µM] | IC50 [6] [µM] | IC50 [7] [µM] | IC50 [8] [µM]
O=C1Nc2ccccc2/C1=N/Nc1nc(-c2ccc(Cl)cc2)cs1 | 10.6 | 20 | 0.53 |  |  |  |  | 
O=C1Nc2ccccc2/C1=N/Nc1nc(-c2ccc(O)c(O)c2)cs1 | 3.2 | 0.9 | 3.5 | Not Active |  |  |  | 
O=C1Nc2ccccc2/C1=N/Nc1nc(-c2ccc(F)cc2)cs1 | 6.4 | 23.9 | 0.26 |  |  |  |  | 
O=C1Nc2ccccc2/C1=N/Nc1nc(-c2cccc([N+](=O)[O-])c2)cs1 | 2.8 | 13 | 0.21 |  |  |  |  | 
COc1ccc(-c2csc(N/N=C3\C(=O)Nc4ccccc43)n2)cc1 | 4.7 | 26 | 0.18 |  |  |  |  | 
O=C1Nc2ccccc2/C1=N/Nc1nc(-c2ccc(-c3ccccc3)cc2)cs1 | 2.5 | 22 | 0.11 | Not Active | 2.7 | 15.4 | 3.42 | 18.8
O=C1Nc2ccccc2/C1=N/Nc1nc(-c2ccc(Br)cc2)cs1 | 14.9 | 81 | 0.18 |  |  |  |  | 
O=C1Nc2ccccc2/C1=N/Nc1nc(-c2ccc(F)cc2F)cs1 | 2.6 | 18.5 | 0.14 |  |  |  |  | 
O=C1Nc2ccccc2/C1=N/Nc1nc(-c2ccc([N+](=O)[O-])cc2)cs1 | 2.9 | 34 | 0.08 |  |  |  |  | 
O=C1Nc2ccccc2/C1=N/Nc1nc(-c2ccc(Cl)cc2Cl)cs1 | 3.9 | 19.5 | 0.2 |  |  |  |  | 
O=C1Nc2ccccc2/C1=N/Nc1nc(-c2ccccc2)cs1 | 100 | 71.6 | 1.3 |  |  |  |  | 
Cc1ccc(-c2csc(N/N=C3\C(=O)Nc4ccccc43)n2)cc1 | 9 | 45 | 0.2 |  |  |  |  | 
